Data: US20260354380A1, “PYRAZOLO PESTICIDAL COMPOUNDS” (BASF SE, priority 2022, published 2026)

Legend:
Assay type in all cases: in vivo
Plutella xylostella [1] = assay: Action on Diamond Back Moth (Plutella xylostella), microtiter plates, insect diet, eggs; details: 800 ppm; egg and larval mortality; 5 days
Description: Example B8: Action on Diamond Back Moth (Plutella xylostella)
For evaluating control of diamond back moth (Plutella xylostella) the test unit consisted of 96-well-microtiter plates containing an insect diet and 15-25 P. xylostella eggs. The compounds or mixtures were formulated using a solution containing 75% water and 25% DMSO. Different concentrations of formulated compounds or mixtures were sprayed onto the insect diet at 5 μl, using a custom-built micro atomizer, at two replications. For experimental mixtures in these tests identical volumes of both mixing partners at the desired concentrations respectively, were mixed together. After application, microtiter plates were incubated at 28±1 °C, 80±5% RH for 5 days. Egg and larval mortality was then visually assessed.

Plutella xylostella [2] = assay: Action on Diamond Back Moth (Plutella xylostella), cabbage leaf dip, 3rd instar larvae; details: 300 ppm; 3rd instar larvae; 72 hours after treatment
Description: Example B6: Action on Diamond Back Moth (Plutella xylostella)
The active compound is dissolved at the desired concentration in a mixture of 1:1 (v/v) distilled water:acetone. Surfactant (Kinetic® HV) is added at a rate of 0.01% (v/v). The test solution is prepared at the day of use.
Leaves of cabbage were dipped in test solution and air-dried. Treated leaves were placed in petri dishes lined with moist filter paper and inoculated with ten 3rd instar larvae. Mortality was recorded 72 hours after treatment. Feeding damages were also recorded using a scale of 0-100%.
(§1) Compounds disclosed in the document WO2021013561 were prepared according to procedures described therein and their pesticidal activities were determined by procedure analogues to the procedures as described above in examples B6 and B7.

Anthonomus grandis = assay: Action on Boll Weevil (Anthonomus grandis); details: 800 ppm; egg and larval mortality; 5 days
Description: Example B3: Action on Boll Weevil (Anthonomus grandis)
For evaluating control of boll weevil (Anthonomus grandis) the test unit consisted of 96-well-microtiter plates containing an insect diet and 5-10 A. grandis eggs.
The compounds were formulated using a solution containing 75% (v/v) water and 25% (v/v) DMSO. Different concentrations of formulated compounds were sprayed onto the insect diet at 5 μl, using a custom-built micro atomizer, at two replications.
After application, microtiter plates were incubated at about 25±1 °C and about 75±5% relative humidity for 5 days. Egg and larval mortality were then visually assessed.

Aedes aegypti = assay: whole plant or invertebrate; details: 800 ppm; larvae; 2 days
Description: Example B1: Action on Yellow Fever Mosquito (Aedes aegypti)
For evaluating control of yellow fever mosquito (Aedes aegypti) the test unit consisted of 96-well-microtiter plates containing 200 μl of tap water per well and 5-15 freshly hatched A. aegypti larvae.
The active compounds or mixtures were formulated using a solution containing 75% (v/V) water and 25% (v/v) DMSO. Different concentrations of formulated compounds or mixtures were sprayed onto the insect diet at 2.5 μl, using a custom-built micro atomizer, at two replications. For experimental mixtures in these tests identical volumes of both mixing partners at the desired concentrations respectively, were mixed together.
After application, microtiter plates were incubated at 28±1 °C, 80±5% RH for 2 days. Larval mortality was then visually assessed.

Heliothis virescens = assay: Action on Tobacco Budworm (Heliothis virescens); details: 800 ppm; egg and larval mortality; 5 days
Description: Example B5: Action on Tobacco Budworm (Heliothis virescens)
For evaluating control of tobacco budworm (Heliothis virescens) the test unit consisted of 96-well-microtiter plates containing an insect diet and 15-25 H. virescens eggs.
The compounds were formulated using a solution containing 75% v/v water and 25% v/v DMSO. Different concentrations of formulated compounds were sprayed onto the insect diet at 10 μl, using a custom-built micro atomizer, at two replications.
After application, microtiter plates were incubated at about 28±1 °C and about 80±5% relative humidity for 5 days. Egg and larval mortality were then visually assessed.

Spodoptera eridania = assay: Action on Southern Armyworm (Spodoptera eridania), 2nd Instar Larvae; details: 300 ppm; 2nd instar larvae; 4 days after treatment
Description: Example B7: Action on Southern Armyworm (Spodoptera eridania), 2nd Instar Larvae
The active compounds were formulated by a Tecan liquid handler in 100% cyclohexanone as a 10,000 ppm solution supplied in tubes. The 10,000 ppm solution was serially diluted in 100% cyclohexanone to make interim solutions. These served as stock solutions for which final dilutions were made by the Tecan in 50% acetone: 50% water (v/v) into 10 or 20 ml glass vials. A nonionic surfactant (Kinetic®) was included in the solution at a volume of 0.01% (v/v). The vials were then inserted into an automated electrostatic sprayer equipped with an atomizing nozzle for application to plants/insects.
Lima bean plants (variety Sieva) were grown 2 plants to a pot and selected for treatment at the 1st true leaf stage. Test solutions were sprayed onto the foliage by an automated electrostatic plant sprayer equipped with an atomizing spray nozzle. The plants were dried in the sprayer fume hood and then removed from the sprayer. Each pot was placed into perforated plastic bags with a zip closure. About 10 to 11 armyworm larvae were placed into the bag and the bags zipped closed. Test plants were maintained in a growth room at about 25 °C and about 20-40% relative humidity for 4 days, avoiding direct exposure to fluorescent light (24 hour photoperiod) to prevent trapping of heat inside the bags. Mortality and reduced feeding were assessed 4 days after treatment, compared to untreated control plants.
as §1

Row | Structure (SMILES) | mortality in comparison with untreated controls (Plutella xylostella [1]) | mortality in comparison with untreated controls (Plutella xylostella [2]) | mortality in comparison with untreated controls (Anthonomus grandis) | mortality in comparison with untreated controls (Aedes aegypti) | mortality in comparison with untreated controls (Heliothis virescens) | mortality in comparison with untreated controls (Spodoptera eridania)
1 | Cc1ccc(C(C)C)c(N2C(=O)CSC2=NC(=O)Nc2ccc(-n3cc(NC(=O)c4ccc(C(C)(C)C)cc4)c(C)n3)cc2)c1 [Example C-73] | at least 75% | – | – | – | – | –
2 | Cc1ccc(C(C)C)c(N2C(=O)CS/C2=N\C(=O)Nc2ccc(-n3cc(NC(=O)c4ccc(OC(F)(F)F)cc4)c(C)n3)cc2C#N)c1 [Example C-13] | – | at least 75% | at least 75% | at least 50% | at least 75% | at least 75%
3 | COc1ccc(C(=O)Nc2cn(-c3ccc(NC(=O)/N=C4\SCC(=O)N4c4cc(C)ccc4C(C)C)cc3)nc2C)cc1 [Example C-32] | – | at least 75% | at least 75% | at least 50% | at least 75% | at least 75%
4 | Cc1ccc(C(C)C)c(N2C(=O)CSC2=NC(=O)Nc2ccc(-n3cc(NC(=O)c4ccc(C5(F)CC5)cc4)c(C)n3)cc2)c1 [Example C-88] | – | at least 75% | at least 75% | at least 50% | at least 75% | at least 75%
5 | C#Cc1ccc(C(=O)Nc2cn(-c3ccc(NC(=O)/N=C4\SCC(=O)N4c4cc(C)ccc4C(C)C)cc3)nc2C)cc1 [Example C-34] | – | at least 75% | at least 75% | at least 50% | at least 75% | at least 75%
6 | Cc1ccc(C(C)C)c(N2C(=O)CSC2=NC(=O)Nc2ccc(-n3cc(NC(=O)c4ccc(S(C)(=O)=O)cc4)c(C)n3)cc2)c1 [Example C-53] | at least 75% | – | – | – | – | –
7 | Cc1ccc(C(C)C)c(N2C(=O)CS/C2=N\C(=O)Nc2ccc(-n3cc(NC(=O)c4ccc(Cl)c(Cl)c4)c(C)n3)cc2)c1 [Example C-26] | – | at least 75% | at least 75% | at least 50% | at least 75% | at least 75%
8 | Cc1ccc(C(C)C)c(N2C(=O)CS/C2=N\C(=O)Nc2ccc(-n3cc(NC(=O)c4ccc(C#N)cc4Cl)c(C)n3)cc2)c1 [Example C-35] | – | at least 75% | at least 75% | at least 50% | at least 75% | at least 75%
9 | Cc1ccc(C(=O)Nc2cn(-c3ccc(NC(=O)N=C4SCC(=O)N4c4cc(C)ccc4C(C)C)cc3)nc2C)cc1 [Example C-49] | – | at least 75% | at least 75% | at least 50% | at least 75% | at least 75%
10 | Cc1ccc(C(C)C)c(N2C(=O)CS/C2=N\C(=O)Nc2ccc(-n3cc(NC(=O)c4ccc(Br)cc4)c(C)n3)cc2)c1 [Example C-30] | – | at least 75% | at least 75% | at least 50% | at least 75% | at least 75%
11 | Cc1ccc(C(C)C)c(N2C(=O)CS/C2=N\C(=O)Nc2ccc(-n3nc(C)c(NC(=O)c4ccc(OC(F)(F)F)cc4)c3C)cc2C2CC2)c1 [Example C-96] | – | at least 75% | at least 75% | at least 50% | at least 75% | at least 75%
12 | Cc1ccc(C(F)(F)F)c(N2C(=O)CS/C2=N\C(=O)Nc2ccc(-n3nc(C)c(NC(=O)c4ccc(OC(F)(F)F)cc4)c3C)cc2)c1 [Example C-16] | – | at least 75% | at least 75% | at least 50% | at least 75% | at least 75%
13 | Cc1ccc(C(C)C)c(N2C(=O)CSC2=NC(=O)Nc2ccc(-n3cc(NC(=O)c4ccc(I)cc4)c(C)n3)cc2)c1 [Example C-71] | – | at least 75% | at least 75% | at least 50% | at least 75% | at least 75%
14 | Cc1ccc(C(C)C)c(N2C(=O)CS/C2=N\C(=O)Nc2ccc(-n3nc(C)c(NC(=O)c4ccc(OC(F)(F)F)c(F)c4)c3C)c(F)c2)c1 [Example C-21] | – | at least 75% | at least 75% | at least 50% | at least 75% | at least 75%
15 | CNC(=O)c1ccc(C(=O)Nc2cn(-c3ccc(NC(=O)N=C4SCC(=O)N4c4cc(C)ccc4C(C)C)cc3)nc2C)cn1 [Example C-60] | at least 75% | – | – | – | – | –
16 | Cc1ccc(C(C)C)c(N2C(=O)CS/C2=N\C(=O)Nc2ccc(-n3cc(NC(=O)c4ccc(C)s4)c(C)n3)cc2)c1 [Example C-94] | – | at least 75% | at least 75% | at least 50% | at least 75% | at least 75%
17 | Cc1ccc(C(C)C)c(N2C(=O)CS/C2=N\C(=O)Nc2ccc(-n3cc(NC(=O)c4ccc(CBr)cc4)c(C)n3)cc2)c1 [Example C-31] | – | at least 75% | at least 75% | at least 50% | at least 75% | at least 75%
18 | Cc1ccc(C(F)(F)F)c(N2C(=O)CSC2=NC(=O)Nc2ccc(-n3cc(NC(=O)c4ccc(OC(F)(F)F)cc4)c(C)n3)cc2)c1 [Example C-12] | – | at least 75% | at least 75% | at least 50% | at least 75% | at least 75%
